# Assay results reported in patent US20070116713A1, “Compositions and methods for reducing or controlling blood cholesterol, lipoproteins, triglycerides and atherosclerosis” (priority 2005, published 2007).
# Assay: Case study: subjects taking capsules of the exemplary composition with exercise and low-fat diet; total cholesterol, triglycerides, LDL, HDL tracked
# Type: in vivo, humans
# Conditions: in two of the subjects; removed from the formulation
# Excerpt: An initial study included 34 subjects. The subjects were advised to exercise and follow a strict low-fat diet, in addition to consuming doses of the exemplary composition. The subjects were tracked from 8 to 24 months.
# It is contemplated within the scope of the invention to provide alternate formulations which eliminate nicotinic acid for use by those persons who cannot tolerate it.
structure (smiles),measurement,value
O=C(O)c1cccnc1 [nicotinic acid],tolerability of nicotinic acid in the formulation,not tolerated
